From the NIST ThermoML archive (doi:10.1016/j.jct.2007.01.010)
Numbers after ± are expanded uncertainties.

Assays:
[1] = xn = mol fraction of the nth substance listed; settings: 101 kPa, Liquid
[2] = 101 kPa, Liquid

CCOC(C)(C)C [2-ethoxy-2-methylpropane] + CCOCCOCCO
[1], x1 = 1
Settings | viscosity [mPa·s]
293.15 K | 0.532 ± 0.007
298.15 K | 0.504 ± 0.007
303.15 K | 0.478 ± 0.007

CCOCCOCCOCCO [2-(2-(2-ethoxyethoxy)ethoxy)ethanol] + CCOC(C)(C)C
viscosity [mPa·s], [1]
Settings | 293.15 K | 298.15 K | 303.15 K
x2 = 0 | 8.087 ± 0.14 | 7.049 ± 0.13 | 6.421 ± 0.12
x2 = 0.0501 | 6.804 ± 0.12 | 5.991 ± 0.11 | 5.485 ± 0.098
x2 = 0.0996 | 5.742 ± 0.098 | 5.091 ± 0.088 | 4.685 ± 0.082
x2 = 0.1502 | 4.816 ± 0.081 | 4.304 ± 0.073 | 3.982 ± 0.067
x2 = 0.1999 | 4.042 ± 0.066 | 3.643 ± 0.06 | 3.389 ± 0.056
x2 = 0.2502 | 3.391 ± 0.054 | 3.076 ± 0.049 | 2.874 ± 0.046
x2 = 0.3005 | 2.841 ± 0.044 | 2.597 ± 0.04 | 2.437 ± 0.038
x2 = 0.3506 | 2.383 ± 0.036 | 2.195 ± 0.033 | 2.067 ± 0.031
x2 = 0.4 | 2.008 ± 0.03 | 1.863 ± 0.028 | 1.759 ± 0.026
x2 = 0.4502 | 1.692 ± 0.024 | 1.582 ± 0.023 | 1.495 ± 0.022
x2 = 0.5 | 1.435 ± 0.02 | 1.351 ± 0.019 | 1.278 ± 0.018
x2 = 0.55 | 1.225 ± 0.017 | 1.16 ± 0.016 | 1.096 ± 0.015
x2 = 0.5955 | 1.067 ± 0.015 | 1.013 ± 0.014 | 0.959 ± 0.013
x2 = 0.6498 | 0.915 ± 0.013 | 0.873 ± 0.012 | 0.824 ± 0.011
x2 = 0.7 | 0.804 ± 0.011 | 0.77 ± 0.011 | 0.727 ± 0.01
x2 = 0.7502 | 0.714 ± 0.01 | 0.689 ± 0.009 | 0.654 ± 0.009
x2 = 0.7982 | 0.647 ± 0.009 | 0.628 ± 0.009 | 0.598 ± 0.008
x2 = 0.8491 | 0.593 ± 0.008 | 0.581 ± 0.008 | 0.555 ± 0.008
x2 = 0.9 | 0.555 ± 0.008 | 0.549 ± 0.008 | 0.524 ± 0.007
x2 = 0.95 | 0.533 ± 0.007 | 0.528 ± 0.007 | 0.502 ± 0.007

CCOCCOCCOCCO [2-(2-(2-ethoxyethoxy)ethoxy)ethanol]
[2]
Settings | viscosity [mPa·s]
293.15 K | 8.087 ± 0.14
298.15 K | 7.049 ± 0.13
303.15 K | 6.421 ± 0.12

CCOC(C)(C)C [2-ethoxy-2-methylpropane] + CCOCCO
viscosity [mPa·s], [1]
Settings | 293.15 K | 298.15 K | 303.15 K
x1 = 0.05 | 1.943 ± 0.024 | 1.691 ± 0.021 | 1.515 ± 0.019
x1 = 0.1001 | 1.766 ± 0.022 | 1.547 ± 0.02 | 1.394 ± 0.018
x1 = 0.1489 | 1.619 ± 0.02 | 1.424 ± 0.018 | 1.286 ± 0.016
x1 = 0.2002 | 1.476 ± 0.018 | 1.306 ± 0.017 | 1.184 ± 0.015
x1 = 0.2511 | 1.35 ± 0.017 | 1.203 ± 0.015 | 1.094 ± 0.014
x1 = 0.2999 | 1.242 ± 0.016 | 1.113 ± 0.014 | 1.017 ± 0.013
x1 = 0.3486 | 1.146 ± 0.014 | 1.031 ± 0.013 | 0.947 ± 0.012
x1 = 0.4 | 1.057 ± 0.013 | 0.955 ± 0.012 | 0.879 ± 0.011
x1 = 0.4511 | 0.977 ± 0.012 | 0.887 ± 0.011 | 0.82 ± 0.011
x1 = 0.5 | 0.908 ± 0.012 | 0.829 ± 0.011 | 0.769 ± 0.01
x1 = 0.5502 | 0.845 ± 0.011 | 0.775 ± 0.01 | 0.721 ± 0.01
x1 = 0.5999 | 0.791 ± 0.01 | 0.729 ± 0.01 | 0.679 ± 0.009
x1 = 0.652 | 0.74 ± 0.01 | 0.685 ± 0.009 | 0.64 ± 0.009
x1 = 0.6999 | 0.699 ± 0.009 | 0.649 ± 0.009 | 0.608 ± 0.008
x1 = 0.7499 | 0.66 ± 0.009 | 0.616 ± 0.008 | 0.578 ± 0.008
x1 = 0.8 | 0.626 ± 0.008 | 0.586 ± 0.008 | 0.552 ± 0.008
x1 = 0.8505 | 0.597 ± 0.008 | 0.56 ± 0.008 | 0.528 ± 0.007
x1 = 0.9 | 0.571 ± 0.008 | 0.538 ± 0.007 | 0.508 ± 0.007
x1 = 0.9499 | 0.549 ± 0.008 | 0.519 ± 0.007 | 0.492 ± 0.007
x1 = 1 | 0.532 ± 0.007 | 0.504 ± 0.007 | 0.478 ± 0.007
